Assay: Brief thermal stress of amorphous solid (physical stability)
Format: physicochemical
Settings: brief thermal stress at 40° C.

C#C[C@]1(O)CC[C@H]2[C@@H]3[C@@H](O)C=C4C[C@@H](O)CC[C@]4(C)[C@H]3CC[C@@]21C [amorphous Compound 1, 17α-ethynyl-androst-5-ene-3β,7β,17β-triol]
solid state form after brief thermal stress: resulted in crystalline material that contains Form I

From patent publication US9850271B2, “Crystalline solvate forms of a pharmaceutical” (NeurMedix, Inc., priority 2008, dated 2017)
